Experimental data: US7138361B2, “Herbicidal heterocycles” (E. I. du Pont de Nemours and Company, priority 2000, dated 2006)

Experiments:
Format in all cases: in vivo
[1] = system: wheat (Triticum aestivum); experiment: Test B postemergence; settings: 13 to 15 days
How it was run: (§1)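 Pre: seeded pots sprayed, chemical in non-phytotoxic solvent/surfactant mix. Post: plants 2–18 cm, 1–4 leaf, same formulation. Greenhouse 13–15 d; visual % control vs untreated, 0–100 scale.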

[2] = system: velvetleaf (Abutilon theophrasti); experiment: Test B postemergence; settings: 13 to 15 days
How it was run: as §1

[3] = system: cocklebur (Xanthium strumarium); experiment: Test B postemergence; settings: 13 to 15 days
How it was run: as §1

[4] = system: morning glory (Ipomoea hederacea); experiment: Test B postemergence; settings: 13 to 15 days
How it was run: as §1

[5] = system: pigweed (Amaranthus retroflexus); experiment: Test B postemergence; settings: 13 to 15 days
How it was run: as §1

[6] = system: lambsquarters (Chenopodium album); experiment: Test B postemergence; settings: 13 to 15 days
How it was run: as §1

corn (Zea mays) [7] = experiment: Test B postemergence; settings: 13 to 15 days
How it was run: as §1

wild oat (Avena fatua) = experiment: Test B postemergence; settings: 13 to 15 days
How it was run: as §1

[8] = system: giant foxtail (Setaria faberii); experiment: Test B postemergence; settings: 13 to 15 days
How it was run: as §1

[9] = system: crabgrass (Digitaria sanguinalis); experiment: Test B postemergence; settings: 13 to 15 days
How it was run: as §1

[10] = system: blackgrass (Alopecurus myosuroides); experiment: Test B postemergence; settings: 13 to 15 days
How it was run: as §1

[11] = system: barnyardgrass (Echinochloa crus-galli); experiment: Test B postemergence; settings: 13 to 15 days
How it was run: as §1

[12] = system: Surinam grass (Brachiaria decumbens); experiment: Test B postemergence; settings: 13 to 15 days
How it was run: as §1

rice (Oryza saliva) [13] = experiment: Test C flooded paddy test; settings: for Rice plant response rating: Flooded Paddy, scale 0 to 100, 0 no effect, 100 complete control; for Plant response rating, Rice: flooded paddy test, scale 0 to 100 (0 no effect, 100 complete control)
How it was run: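 Each species was cultivated to 2 leaves in flooded paddy pots, then treated. After a greenhouse period of 12–14 days, the plants were scored visually relative to controls from 0 (no effect) to 100 (complete control).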

Sunflower = experiment: Test C preemergence; settings: Rate 250 g/ha, scale 0 to 100, 0 no effect, 100 complete control
[14] = system: velvetleaf (Abutilon theophrasti); experiment: Test B preemergence
How it was run: as §1

[15] = system: cocklebur (Xanthium strumarium); experiment: Test B preemergence
How it was run: as §1

[16] = system: morning glory (Ipomoea hederacea); experiment: Test B preemergence
How it was run: as §1

[17] = system: pigweed (Amaranthus retroflexus); experiment: Test B preemergence
How it was run: as §1

[18] = system: lambsquarters (Chenopodium album); experiment: Test B preemergence
How it was run: as §1

corn (Zea mays) [19] = experiment: Test B preemergence
How it was run: as §1

[20] = system: giant foxtail (Setaria faberii); experiment: Test B preemergence
How it was run: as §1

[21] = system: crabgrass (Digitaria sanguinalis); experiment: Test B preemergence
How it was run: as §1

rice (Oryza saliva) [22] = experiment: Test B preemergence
How it was run: as §1

[23] = system: barnyardgrass (Echinochloa crus-galli); experiment: Test B preemergence
How it was run: as §1

[24] = system: Surinam grass (Brachiaria decumbens); experiment: Test B preemergence
How it was run: as §1

Nightshade = experiment: Test C preemergence; settings: Rate 500 g/ha, visual evaluation after 12 to 14 days
[25] = Rate 125 g/ha, scale 0 (no effect) to 100 (complete control)
[26] = Rate 500 g/ha, scale 0 to 100, 0 is no effect, 100 is complete control
[27] = Preemergence, Rate 500 g/ha, scale 0 to 100, 0 no effect, 100 complete control
[28] = preemergence, Rate 125 g/ha, scale of 0 to 100 where 0 is no effect and 100 is complete control, 13 to 15 days

CC(C)(C)c1ccn(C2CCN(c3cccc(OC(F)F)c3)C2=O)n1 (stereo not drawn) [Compound 76]
Plant response rating, Wheat [1, 25]: 0
Plant response rating, Wheat [1, 26]: 0
Plant response rating, Velvetleaf [2, 25]: 0
Plant response rating, Velvetleaf [2, 26]: 0
Plant response rating, Cocklebur [3, 25]: 0
Plant response rating, Cocklebur [3, 26]: 20
Plant response rating, Morningglory [4, 25]: 0
Plant response rating, Morningglory [4, 26]: 20
Plant response rating, Pigweed [5, 25]: 30
Plant response rating, Pigweed [5, 26]: 80
Plant response rating, Lambsquarters [6, 25]: 0
Plant response rating, Lambsquarters [6, 26]: 40
Plant response rating, Corn (corn (Zea mays) [7]; [25]): 0
Plant response rating, Corn (corn (Zea mays) [7]; [26]): 0
Plant response rating, Wild Oat (wild oat (Avena fatua); [25]): 0
Plant response rating, Wild Oat (wild oat (Avena fatua); [26]): 0
Plant response rating, Foxtail, Giant [8, 25]: 0
Plant response rating, Foxtail, Giant [8, 26]: 30
Plant response rating, Crabgrass [9, 25]: 0
Plant response rating, Crabgrass [9, 26]: 40
Plant response rating, Blackgrass [10, 25]: 0
Plant response rating, Blackgrass [10, 26]: 0
Plant response rating, Barnyardgrass [11, 25]: 0
Plant response rating, Barnyardgrass [11, 26]: 90
Plant response rating, Surinam grass [12, 25]: 0
Plant response rating, Surinam grass [12, 26]: 10
Rice plant response rating (rice (Oryza saliva) [13]; Rate 250 g/ha): 80
Rice plant response rating (rice (Oryza saliva) [13]; Rate 500 g/ha): 80
Plant response rating, Rice (rice (Oryza saliva) [13]; Rate 62 g/ha): 20
Plant response rating, Rice (rice (Oryza saliva) [13]; Rate 125 g/ha): 40
Plant response rating, Sunflower (Sunflower): 30
Plant response rating, Velvetleaf [14, 27]: 0
Plant response rating, Velvetleaf [14, 28]: 0
Plant response rating, Cocklebur [15, 27]: 0
Plant response rating, Cocklebur [15, 28]: 0
Plant response rating, Morningglory [16, 27]: 100
Plant response rating, Morningglory [16, 28]: 0
Plant response rating, Pigweed [17, 27]: 100
Plant response rating, Pigweed [17, 28]: 100
Plant response rating, Lambsquarters [18, 27]: 100
Plant response rating, Lambsquarters [18, 28]: 100
Plant response rating, Corn (corn (Zea mays) [19]; [27]): 70
Plant response rating, Corn (corn (Zea mays) [19]; [28]): 0
Plant response rating, Foxtail, Giant [20, 27]: 100
Plant response rating, Foxtail, Giant [20, 28]: 100
Plant response rating, Crabgrass [21, 27]: 100
Plant response rating, Crabgrass [21, 28]: 100
Plant response rating, Rice (rice (Oryza saliva) [22]; [27]): 90
Plant response rating, Rice (rice (Oryza saliva) [22]; [28]): 70
Plant response rating, Barnyardgrass [23, 27]: 100
Plant response rating, Barnyardgrass [23, 28]: 100
Plant response rating, Surinam grass [24, 27]: 100
Plant response rating, Surinam grass [24, 28]: 80
Plant response rating (0 to 100), Nightshade (Nightshade): 60
